Test results from US10906977B2, “Enhancing the therapeutic activity of immune checkpoint inhibitor” (Maine Medical Center Research Institute, priority 2016, dated 2021).
Each block holds one molecule with its values, some of them ahead of it.

What was measured:
[1] = test system: endothelial cells transduced with YAP specific or non-specific shRNAs; assay: Growth of shRNA transduced endothelial cells with soluble RGD peptides; format: cell-based, human; conditions: non-specific shRNA; FIG. 8G
Protocol: (§1) HUVECs (WT, shYAP1 or control transfected) or HRMVECs were plated at 2,000 cells per well with complete EGM-2 media containing 2.0% FBS in the absence or presence of P-1, P-2 or P-C (100 ng/ml) and allowed to grow for 24 hours. Cell growth was monitored using a BrdU or MMT assay kits according to manufacturer's instructions. All assays were completed at least three times in triplicate wells.
Raw cells were transfected with 1 μg of HuSH shRNA plasmids for collagen type I, alpha 2 using Amaxa cell line nucleofector kit V (program #T024). Constructs expressing 21-nucleotide short hairpin RNAs (shRNA) targeting human YAP (shYAP) or non-targeting control (shNT, Sigma-Aldrich, SHC002) were used. Humantargeting shYAP1 lentiviral shRNA was obtained from the Thermo Scientific RNAi consortium (TRCN0000107625). Constructs were packaged into lentivirus, pseudotyped with the vesicular stomatitis virus glycoprotein. Transduction was performed by incubating cells with lentivirus, and stably transduced cells were subsequently used for studies. All cell lines were verified by morphology and mouse and human YAP-specific PCR. […] Endothelial cells were certified mycoplasma-negative by PCR (Lonza), and primary cell cultures were used within the indicated passage numbers. Cells were transduced and selected using puromycin.

Fak = Fak phosphorylation in endothelial cells attached to collagen peptides; format: cell-based, human; conditions: serum free conditions
Protocol: Whole cell and CAM tissue lysates were collected in RIPA buffer supplemented with 1× protease inhibitor and 1× phosphatase inhibitor and were run on polyacrylamide gels using denaturing conditions. Prior to loading the gels, 6× sample buffer was added to each of the lysates (final concentration 1×) and boiled for five minutes. Twenty to 50 μg of total protein were loaded into each lane. For detection of proteins larger than 50 kD, 10% gels were used; for proteins smaller than 50 kD 15% gels were used. Gels were run at 60 volts (v) until the dye front passed through the stacking gel, and then the voltage was increased to 100V for the remainder of the separation. Precision Plus protein standards (Bio-Rad) were used to visualize migration. Protein was transferred to nitrocellulose membranes using a wet tank system and blocked for 1 h using 10% non-fat dried milk in tris-buffered saline with 0.01% Tween-20 (TBS-T). […] Western blot bands were quantified using Image J software based on pixel intensity.

[2] = test system: chick chorioallantoic membrane (CAM); assay: Chick CAM angiogenesis induced by soluble RGD collagen peptides; format: in vivo
Protocol: (§2) The chick chorioallantoic membrane (CAM) assays were carried out with some modifications (19). For all experiments CAMs of 10-day-old chick embryos obtained from Charles River (North Franklin, Conn.) were separated from the shell membrane. Filter discs either non-treated (inflammation assays) pretreated (angiogenesis assays) with cortisone acetate (3.0 mg/ml) containing RPMI only or FGF-2 (40 ng). CAMs were either non-treated or treated topically with Mab XL313, XL166 or a non-specific control antibody (10 μg/embryo every 24 h for three consecutive treatments). […] At the end of the incubation period the embryos were sacrificed and the CAM tissues were analyzed. Angiogenesis was quantified by counting the number of angiogenic branching blood vessels within the area of the filter disc. The angiogenic index was determined by subtracting the mean number of blood vessel branch points from untreated CAMs from each experimental condition. Eight to twelve embryos were used per condition and experiments were repeated at least three times.

HUVEC = assay: Endothelial cell proliferation with soluble RGD peptides; format: cell-based, human; conditions: 100 ng/ml, 24 hours; FIG. 8C
Protocol: as §1

HRMVEC = assay: as above; format: cell-based, human; conditions: 100 ng/ml, 24 hours; FIG. 8D
Protocol: as §1

[3] = test system: chick chorioallantoic membrane (CAM); assay: Chick CAM inflammation induced by soluble RGD collagen peptides; format: in vivo; conditions: FIG. 5D
Protocol: as §2

YAP = assay: Nuclear YAP in P-2 stimulated endothelial cells with Src or P38MAPK inhibitor; format: cell-based, human; conditions: inhibitor 10 μM; as compared to control; FIG. 8E, 8F
Protocol: (§3) Endothelial cells (HUVECs or HRMVECs) were incubated in serum free media with 1 mM MgCl2, 0.2 mM MnCl2 in the presence of a Src inhibitor, PP2, (10 μM) a P38MAPK inhibitor, SB202190 (10 μM) or vehicle only (DMSO) for 10 min at 37° C. Treated cells were then seeded on to immobilized P-1 and P-2 and lysates were collected at 15 min.
(§4) Whole cell and CAM tissue lysates were collected in RIPA buffer supplemented with 1× protease inhibitor and 1× phosphatase inhibitor and were run on polyacrylamide gels using denaturing conditions. Prior to loading the gels, 6× sample buffer was added to each of the lysates (final concentration 1×) and boiled for five minutes. Twenty to 50 μg of total protein were loaded into each lane. […] Gels were run at 60 volts (v) until the dye front passed through the stacking gel, and then the voltage was increased to 100V for the remainder of the separation. Precision Plus protein standards (Bio-Rad) were used to visualize migration. Protein was transferred to nitrocellulose membranes using a wet tank system and blocked for 1 h using 10% non-fat dried milk in tris-buffered saline with 0.01% Tween-20 (TBS-T). […] Membranes were washed 3 times in TBS-T for five minutes. Blots were then incubated with HRP conjugated secondary antibodies (1:15000) in 1% non-fat milk in TBS-T for 1 h. […] Western blot bands were quantified using Image J software based on pixel intensity.

P38MAPK = assay: Phosphorylated P38MAPK in HUVECs attached to collagen peptides (Western blot); format: cell-based, human; conditions: Src inhibitor PP2 10 μM; FIG. 7F
Protocol: as §3, §4

β3-integrin = molecular target: T1, β3-integrin (Homo sapiens, UniProt P05106+P06756); assay: β3-integrin phosphorylation in endothelial cells attached to collagen peptides (Western blot); format: cell-based; conditions: Src inhibitor PP2 10 μM; FIG. 7E
T1 construct: endogenous in cells; host or cells: HUVEC
T1 sequence (P05106 27-788): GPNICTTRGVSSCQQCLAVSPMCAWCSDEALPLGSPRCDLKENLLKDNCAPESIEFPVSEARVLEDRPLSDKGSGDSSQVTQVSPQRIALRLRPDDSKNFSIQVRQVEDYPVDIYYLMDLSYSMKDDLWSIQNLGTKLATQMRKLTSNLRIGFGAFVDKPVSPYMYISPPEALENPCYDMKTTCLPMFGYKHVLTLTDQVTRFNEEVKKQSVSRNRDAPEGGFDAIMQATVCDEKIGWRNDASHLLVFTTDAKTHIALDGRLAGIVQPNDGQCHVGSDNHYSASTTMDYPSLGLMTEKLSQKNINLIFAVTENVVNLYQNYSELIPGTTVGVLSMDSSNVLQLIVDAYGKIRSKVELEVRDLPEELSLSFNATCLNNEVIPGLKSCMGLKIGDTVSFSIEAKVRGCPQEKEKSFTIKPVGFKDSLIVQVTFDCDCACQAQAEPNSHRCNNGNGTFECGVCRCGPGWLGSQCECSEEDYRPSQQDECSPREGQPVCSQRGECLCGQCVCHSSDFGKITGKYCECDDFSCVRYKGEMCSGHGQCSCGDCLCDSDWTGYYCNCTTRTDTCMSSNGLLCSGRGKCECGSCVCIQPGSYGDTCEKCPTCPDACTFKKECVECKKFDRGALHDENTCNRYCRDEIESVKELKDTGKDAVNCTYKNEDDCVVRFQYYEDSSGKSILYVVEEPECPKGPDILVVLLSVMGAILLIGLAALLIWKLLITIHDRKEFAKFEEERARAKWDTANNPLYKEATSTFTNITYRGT
T1 sequence (P06756 31-889 limits assumed): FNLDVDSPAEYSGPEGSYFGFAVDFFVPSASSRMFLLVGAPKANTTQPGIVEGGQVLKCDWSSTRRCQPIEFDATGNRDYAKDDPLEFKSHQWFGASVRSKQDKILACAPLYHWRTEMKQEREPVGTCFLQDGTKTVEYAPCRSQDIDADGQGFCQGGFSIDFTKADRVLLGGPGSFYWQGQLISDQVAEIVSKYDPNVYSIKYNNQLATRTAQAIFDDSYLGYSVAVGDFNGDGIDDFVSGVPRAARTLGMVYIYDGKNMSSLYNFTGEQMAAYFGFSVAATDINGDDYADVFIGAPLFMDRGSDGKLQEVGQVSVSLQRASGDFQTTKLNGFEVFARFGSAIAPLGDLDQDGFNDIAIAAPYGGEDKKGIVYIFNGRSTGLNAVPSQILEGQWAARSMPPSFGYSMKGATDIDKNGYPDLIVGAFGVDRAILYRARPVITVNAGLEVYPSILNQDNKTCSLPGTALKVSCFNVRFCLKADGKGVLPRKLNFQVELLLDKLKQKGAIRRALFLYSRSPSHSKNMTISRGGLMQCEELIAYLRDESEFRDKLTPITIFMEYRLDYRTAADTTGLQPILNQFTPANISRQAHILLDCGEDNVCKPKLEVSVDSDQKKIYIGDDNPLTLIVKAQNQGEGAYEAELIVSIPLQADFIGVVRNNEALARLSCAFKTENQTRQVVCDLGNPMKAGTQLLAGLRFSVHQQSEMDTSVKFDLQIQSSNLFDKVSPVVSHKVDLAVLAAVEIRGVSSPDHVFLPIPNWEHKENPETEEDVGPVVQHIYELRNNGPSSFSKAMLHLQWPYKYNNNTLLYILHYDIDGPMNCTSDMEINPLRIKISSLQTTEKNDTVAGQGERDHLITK
T1 sequence (P06756 891-1048 partner limits assumed): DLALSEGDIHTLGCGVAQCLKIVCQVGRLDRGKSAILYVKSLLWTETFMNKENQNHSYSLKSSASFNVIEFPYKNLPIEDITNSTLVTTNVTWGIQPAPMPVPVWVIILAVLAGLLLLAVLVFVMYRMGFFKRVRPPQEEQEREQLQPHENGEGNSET
Protocol: as §3, §4

[4] = test system: chick chorioallantoic membrane (CAM); assay: Chick CAM inflammation assay, FGF-2 induced, no cortisone acetate; format: in vivo; conditions: FGF-2 induced; vs no treatment or control antibody; FIG. 3E
Protocol: The chick chorioallantoic membrane (CAM) assays were carried out with some modifications (19). For all experiments CAMs of 10-day-old chick embryos obtained from Charles River (North Franklin, Conn.) were separated from the shell membrane. Filter discs either non-treated (inflammation assays) pretreated (angiogenesis assays) with cortisone acetate (3.0 mg/ml) containing RPMI only or FGF-2 (40 ng). CAMs were either non-treated or treated topically with Mab XL313, XL166 or a non-specific control antibody (10 μg/embryo every 24 h for three consecutive treatments). For peptide induction experiments, CAMs were stimulated with 100 ng/ml of the RGD peptides (P-1, P-2, P-C) in the presence or absence of the P38MAPK inhibitor, SB202190 (10 μM). At the end of the incubation period the embryos were sacrificed and the CAM tissues were analyzed. Angiogenesis was quantified by counting the number of angiogenic branching blood vessels within the area of the filter disc. The angiogenic index was determined by subtracting the mean number of blood vessel branch points from untreated CAMs from each experimental condition. Eight to twelve embryos were used per condition and experiments were repeated at least three times.
CAMs examined for accumulation of granulation tissue were harvested, fixed in 4% PFA and paraffin embedded and sectioned (4 μm) and stained with Giemsa. CAM tissues analyzed via immunofluorescence were harvested, embedded with OCT, snap frozen and sectioned ([…]). Frozen sections were fixed in 50% methanol/50% acetone, air dried and blocked with 2.5% BSA for 1 h at 37° C. For expression of the XL313 and XL166 epitopes as well as monocyte/macrophages, FGF-2 stimulated CAM tissues were stained with Mabs XL313, XL166 (50 μg/ml) or KUL1 (1:250) and then incubated with Alexa-488 labeled secondary antibodies (1:2000 dilution). […] Using a similar strategy, sections of RGD peptide-treated CAM tissues were analyzed for phosphorylated-P38MAPK in angiogenic vessels by co-incubation of anti-phospho-P38MAPK (1:50) and anti-vWf (1:500) antibodies. […]

[5] = test system: human umbilical vein endothelial cell (HUVEC); assay: Cell adhesion to immobilized collagen RGD peptides; format: cell-based; conditions: peptide immobilized 100 μg/ml; FIG. 1A
Protocol: RGD peptides (P-1, P-2, P-3, P-4, P-5, and P-C) were immobilized (100 μg/ml) to wells. HUVEC, HMVEC, HRMVEC, and HDF cells were suspended in adhesion buffer (RPMI containing 1 mM MgCl2, 0.2 mM MnCl2 and 0.5% BSA) and 1×10^5 cells were seeded into the wells in the presence or absence of P4C10, LM609, P1F6 or control antibodies (100 μg/ml). Cells were allowed to attach for 25 min at 37° C. Media containing non-attached cells was aspirated and attached cells were washed with PBS and stained with crystal violet. Cell adhesion was quantified by measuring the optical density of eluted dye. Adhesion assays were completed at least three times with triplicate wells.

[6] = molecular target: Denatured collagen (collagen type-I boiled 15 minutes) (UniProt P02452); assay: integrin blocking ELISA; denatured collagen wells pre-treated with anti-HU177 (0.1 µg/ml); competitor α10β1 (2.0 µg/ml)
[7] = molecular target: Denatured collagen (collagen type-I boiled 15 minutes) (UniProt P02452); assay: integrin blocking ELISA; denatured collagen wells pre-treated with anti-HU177 (0.1 µg/ml); competitor α2β1 (2.0 µg/ml)
[8] = molecular target: Denatured collagen (collagen type-I boiled 15 minutes) (UniProt P02452); assay: cell-based or functional assay
[9] = molecular target: integrin αvβ3 on cells (HUVEC endothelial cells, M21 melanoma cells, human T-cells) (human, UniProt P06756 31-1048; P05106 27-788); assay: cell-based or functional assay
Chain of integrin αvβ3 on cells (HUVEC endothelial cells, M21 melanoma cells, human T-cells) (P06756 31-1048, chain 1 of 2): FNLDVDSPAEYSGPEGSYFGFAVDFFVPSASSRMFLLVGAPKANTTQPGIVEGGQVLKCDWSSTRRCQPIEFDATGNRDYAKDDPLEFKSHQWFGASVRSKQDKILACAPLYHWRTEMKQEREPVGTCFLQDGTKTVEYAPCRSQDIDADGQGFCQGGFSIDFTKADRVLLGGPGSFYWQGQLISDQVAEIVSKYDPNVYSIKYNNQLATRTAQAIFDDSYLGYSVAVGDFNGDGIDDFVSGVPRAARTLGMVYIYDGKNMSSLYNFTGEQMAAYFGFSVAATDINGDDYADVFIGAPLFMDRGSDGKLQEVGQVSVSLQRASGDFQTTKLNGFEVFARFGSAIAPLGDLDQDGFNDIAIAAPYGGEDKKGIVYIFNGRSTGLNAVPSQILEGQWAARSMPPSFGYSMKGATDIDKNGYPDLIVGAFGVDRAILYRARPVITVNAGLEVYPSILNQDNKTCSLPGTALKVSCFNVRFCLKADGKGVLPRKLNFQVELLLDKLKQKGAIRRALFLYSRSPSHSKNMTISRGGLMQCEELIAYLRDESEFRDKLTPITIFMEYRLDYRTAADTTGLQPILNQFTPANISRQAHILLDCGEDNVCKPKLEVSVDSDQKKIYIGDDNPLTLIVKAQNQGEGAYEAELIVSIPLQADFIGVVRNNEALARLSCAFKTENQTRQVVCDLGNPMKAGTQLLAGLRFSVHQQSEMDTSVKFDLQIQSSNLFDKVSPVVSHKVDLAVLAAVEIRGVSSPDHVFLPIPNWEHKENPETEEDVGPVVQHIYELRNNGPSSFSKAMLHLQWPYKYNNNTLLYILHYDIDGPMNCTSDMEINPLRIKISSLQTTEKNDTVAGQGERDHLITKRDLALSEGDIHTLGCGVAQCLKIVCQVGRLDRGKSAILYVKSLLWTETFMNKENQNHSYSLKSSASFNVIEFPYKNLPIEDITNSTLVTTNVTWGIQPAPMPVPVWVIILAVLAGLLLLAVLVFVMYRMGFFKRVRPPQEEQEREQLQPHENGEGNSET
Chain of integrin αvβ3 on cells (HUVEC endothelial cells, M21 melanoma cells, human T-cells) (P05106 27-788, chain 2 of 2): as the sequence (P05106 27-788) above

Molecule: CKGDRGDAPGC [Mab P-1, RGDAPG containing collagen type-I peptide (…) with flanking cysteines]
growth of control transduced endothelial cells with soluble peptide [1]: not | Fak phosphorylation following ligation of peptide (Fak): Minimal Fak phosphorylation | induction of CAM angiogenesis as compared to no treatment ([2]; soluble peptide, FIG. 5C): not | HUVEC growth with soluble peptide (HUVEC): minimal effect | HRMVEC growth with soluble peptide (HRMVEC): minimal effect | CAM inflammation following stimulation with peptide [3]: Minimal evidence of tissue inflammation

β3 phosphorylation following binding to collagen peptide P-2 (β3-integrin): reduced
Molecule: CC(C)(C)n1nc(-c2ccc(Cl)cc2)c2c(N)ncnc21 [Src inhibitor, PP2, reference compound]
reduction of nuclear YAP accumulation following P-2 stimulation (YAP): approximately 50% | P38MAPK phosphorylation following binding to collagen peptide P-2 (P38MAPK): reduced

Molecule: CC(=O)OCC(=O)[C@@]1(O)CC[C@H]2[C@@H]3CCC4=CC(=O)CC[C@]4(C)[C@H]3C(=O)C[C@@]21C [cortisone acetate]
reduction of the percentage of CAMs exhibiting thickening / inflammation [4]: greater than 80%

Molecule: CRGPRGDQGPC [Mab P-5]
HUVEC adhesion to immobilized peptide [5]: highest levels of adhesion

percent inhibition of α10β1 binding to denatured collagen [6]: 60% | percent inhibition of α2β1 binding to denatured collagen [7]: 30% | basal migration of SKOV-3 cells and fibroblasts on denatured collagen [8]: 35 to 38% | decrease in SKOV-3 cell adhesion to denatured collagen [8]: 40% | decrease in fibroblast adhesion to denatured collagen [8]: 50%
Molecule: Mab HU177 (antibody)

Molecule: Oc1ccc(-c2nc(-c3ccncc3)c(-c3ccc(F)cc3)[nH]2)cc1 [P38MAPK inhibitor, SB202190, reference compound]
reduction of nuclear YAP accumulation following P-2 stimulation (YAP): approximately 50% | effect on P-2 induced angiogenesis in vivo ([2]; SB202190 10 μM, FIG. 6F): reduced

Src phosphorylation in endothelial cells attached to the peptide (Western blot) [9]: ~2 fold | β3-integrin phosphorylation in endothelial cells attached to the peptide (Western blot) [9]: > 3 fold
Molecule: CQGPRGDKGEC [Synthetic collagen RGD containing peptide P-2 (CQGPRGDKGEC)]
